Assay results taken from patent US20040054292A1, “Non-invasive apparatus system for monitoring autonomic nervous system and uses thereof” (INDUSTRIAL TECHNOLOGY RESEARCH INSTITUTE, priority 2002, published 2004).

Tests used:
autonomic nervous system [1] = experiment: Heart rate variability spectral analysis in anesthetized rats after intravenous drug; format: in vivo, Sprague-Dawley rats; conditions: for high frequency (index of parasympathetic nervous activity): 0.5 to 2.4 Hz
Procedure: Matured male Sprague-Dawley rats (weighed 250-350 g) were first sensitizing anesthetized by intraperitoneal injecting of pentobarbital sodium (50 mg/kg) and then were general anesthetized by continuously infusion with pentobarbital sodium (15 mg/kg). The rats were intubated in both femoral veins, wherein one was used for continuously dropping anesthesia and the other was used for delivering testing drug. The rates were tracheal intubated to connect with a respirator (Havard 683) for mechanical respiration. In addition, the skeletal muscle of the whole body of the animals was anesthetized by administrating pancuronium. In order to record the artery pressure, the intubation at the right femoral artery was linked to a PE-50 tube connected with a syringe pre-filled with heparinized saline (200 unit/mL). The artery pressure and heart rate were recorded by a pressure sensory machine ([…], Hewlett-Packard) in the tube. The artery pressure was converted by a pressure converter (Statham, P231D, frequency range: DC to 200 Hz), amplified by a pre-amplifier (Gould, G-13-4615-52), and then filtered (DC to 100 Hz). Electrocardiograph signal was recorded by a second guided electrocardiograph recorder. The signal was amplified by a pre-amplifier(Gould G-20-4615-58) and then filtered (3-300 Hz). At the same time, the signal and the artery pressure were caught by a 12 bit analog-digital converter in an analyzing computer in a frequency of 256 points per second in every channel. The computer used was an IBM-PC compatible type comprising an Intel 80486 micro processor and a 4 MB memory. The Heart rate signals (digital blood pressure signal or electrocardiograph signal) were simultaneously and continuously on-line analyzed by the Fast Fourier Transform method, and the power of each special frequency interval was quantified by integration. High frequency (frequency between 0.5 to 2.4 Hz) in spectrum was considered as an index of parasympathetic nervous function, low frequency % [=100× low frequency/(high frequency+low frequency)] was considered as an index of sympathetic nervous function, and the means of heart rate period and variance were considered as references. The rats were divided into three groups, and each group had 4 to 6 animals. A group of animals were intravenously administered with yohimbine (1 mg/kg), which is a central nervous system α2 receptor antagonist being able to stimulate sympathetic nervous functions and inhibit parasympathetic nervous functions. Another group of animals was intravenously administered with guanabenz (100 μg/kg), which is a central nervous system α2 receptor agonist being able to inhibit sympathetic nervous functions and stimulate parasympathetic nervous functions. The animals administered with saline of the same volume was classified as a controlled group. Prior to applying the drugs, basal blood pressure, mean value of heart rate period and spectral analysis were measured for about 10 minutes, and after the drugs being intravenously administered, the effects of the drugs were measured for 30 minutes. […] Therefore, low frequency % is shown to be a valid index of the sympathetic nervous activity, and high frequency an index of the parasympathetic nervous activity, respectively. […]

autonomic nervous system [2] = experiment: Heart rate variability (ECG spectral analysis) in apoplectic patients complicated with hypertension before and after drug; format: in vivo, human; conditions: labetalol 12.5 mg injected
Procedure: In this human experiment, the non-invasive apparatus system of the invention was used to monitor the autonomic nervous system functional change side effects caused by drugs. Four (two females and two males) apoplectic patients complicated with hypertension at the age of 77.3±8.8 (± means standard deviation) were chosen in the study. The patients were divided into two groups: (1) the control group and (2) the labetalol group (the experiment group). All patients, 5 minutes before administrating the drug, were classified as the control group. After being treated/injected with labetalol (12.5 mg) for 5 minutes, the patients became the labetalol group. Labetalol is an α and β combined epinephrine antagonist (a sympathetic hormone epinephrine blocker) for lowering blood pressure. Treatment and analysis of the electrocardiograph (ECG) were conducted similarly to those recited in Example 1, except that the ranges of the frequencies were determined based on those of humans. The power of each frequency range comprising variance, low frequency power (0.04-0.15 Hz) and high frequency power (0.15-0.4 Hz) was quantified by integration. Parameters of the ratios of low frequency/high frequency (LF/HF ratio) and low frequency rate (LF%) were also calculated at the same time. The values of variance, LF, HF and LF/HF were logarithmically transformed to correct the distribution bias. All data were presented as mean ±SD, and the differences between the experimental and control groups were examined by paired t-test, wherein a value of p<0.05 is considered as the data having a statistic meaning. […] Variance and HF responses were uncertain (P>0.05). In light of the results of the experiment, it has been proven that non-invasive apparatus system of the invention can be used in patients for monitoring autonomic nervous system functional change side effects caused by drugs.

[3] = guanabenz 100 μg/kg intravenously, FIG. 2
[4] = guanabenz 100 μg/kg intravenously, measured for 30 minutes after drug, FIG. 2
[5] = 5 minutes after vs before, P>0.05, FIG. 4
[6] = 5 minutes after vs before, p<0.05, FIG. 4
[7] = yohimbine 1 mg/kg intravenously, FIG. 3

For `N=C(N)N/N=C/c1c(Cl)cccc1Cl` [guanabenz], the “high frequency (index of parasympathetic nervous activity)” value (autonomic nervous system [1]; [3]) was “increased”, the “low frequency % (index of sympathetic nervous activity)” value (autonomic nervous system [1]; [3]) was “tremendously lowered” and the heart rate period (autonomic nervous system [1]; [4]) was “increased”. For the same compound, the heart rate variability (autonomic nervous system [1]; [4]) was “increased”.

In the case of `CC(CCc1ccccc1)NCC(O)c1ccc(O)c(C(N)=O)c1` (stereo not drawn) [labetalol], the heart rate period (autonomic nervous system [2]; 5 minutes after vs 5 minutes before, four patients, p<0.05, FIG. 4) is reported as “increased”, the HF response (autonomic nervous system [2]; [5]) is reported as “uncertain” and the Variance response (autonomic nervous system [2]; [5]) is reported as “uncertain”. For the same compound, the “LF % (index of heart sympathetic nervous activity)” value (autonomic nervous system [2]; [6]) was “decreased” and the “LF/HF (index of heart sympathetic nervous activity)” value (autonomic nervous system [2]; [6]) was “decreased”.

For `COC(=O)[C@@H]1[C@H]2C[C@H]3c4[nH]c5ccccc5c4CCN3C[C@@H]2CC[C@@H]1O` [yohimbine], the “high frequency (index of parasympathetic nervous activity)” value (autonomic nervous system [1]; [7]) was “lowered”, the heart rate period (autonomic nervous system [1]; [7]) was “lowered” and the “low frequency % (index of sympathetic nervous activity)” value (autonomic nervous system [1]; [7]) was “tremendously increased”.
